# “Also recorded” adds a separate entry of the source.
# Assays:
# Format in all cases: in vivo
# [1] = system: male C57BL/6NCrl mice on modified high fat diet (mHFD); test: Extended mHFD NASH mouse study, 8-week treatment (Example 2)
# Excerpt: The modified high fat diet (mHFD) was obtained from Research Diets, Inc. (New Brunswick, N.J.) and was formulated according to Cong et al., supra. The mHFD contained 60% fat, 14% protein, and 26% carbohydrate, with total energy content of 21.0 kJ/g. The mHFD contained a low concentration of choline bicitrate a (0.6 g/kg) and DL-methionine (1.5 g/kg). Fatty acid composition of the fats (mainly from lard) in mHFD was 36% saturated fatty acids, 45% monounsaturated fatty acids, and 19% polyunsaturated fatty acids (PUFA).
# Male C57BL/6NCrl mice were obtained from Charles River Laboratories (Wilmington, Mass.). Mice were maintained in microisolator cages, in groups of no more than 4 animals per cage, and on a 12-hour light cycle. Food and water were provided ad libitum. On the last day of the study, all mice were sacrificed by cervical dislocation after a 4-hour food deprivation. Livers were rapidly dissected and part of each liver was cut and fixed in formaldehyde saline (4%) solution for histological analysis. The rest of the liver was snap frozen in liquid nitrogen, and stored at −70° C. until use.
# Mice were acquired at 3-4 weeks of age (body weight of about 11-12 g). Mice were fed a standard chow (Control group) or mHFD (Model group) for 22 weeks. […] At week-22, based on body weight consideration, the mHFD-fed mice were screened and distributed in a balanced fashion into 3 groups for the compound treatment study (Table 1).
# During the 8-week drug treatment phase, all animals (except for standard-chow controls) remain on the mHFD diet. During the treatment period, the summary of measurement schedule is as below: • 1) Body weight (BW) was taken once a week. • 2) Terminal blood and whole Liver were collected. • 3) Hepatic histology (NAS score) was assessed.
# Livers were removed at necropsy and fixed in 10% buffered formalin. Sections were processed to paraffin by routine histological methods and 4 μm sections were stained with hematoxylin and eosin. Sections were evaluated under light microscopy by a board-certified veterinary pathologist for identification of proliferative lesions as well as severity scoring of lesions associated with steatohepatitis. The pathologist was blinded to the treatment status. Steatohepatitis parameters were scored and classified according to a standardized histological scoring system for NASH described by Kleiner et al., Hepatology, 2005, 41, 1313-1321. In brief, individual livers were evaluated for steatosis, lobular inflammation, and ballooning degeneration of hepatocytes, and given a score of (03) for steatosis and inflammation, and (02) for ballooning degeneration, using previously defined criteria (see below). An NAFLD activity score (NAS) was obtained by summing the individual parameter scores.
# Steatosis Location: 0: Predominantly zone 3 (centrilobular); 1: Predominantly zone 1 (periportal); 2: Azonal (defined as when the pattern could not be fit into one of the other categories or marked architectural change); and 3: Panacinar (defined as involving all zones of the liver equally).
# Inflammation: 0: No foci; 1: <2 foci per 200× field; 2: 2-4 foci/200× field; and 3: >4 foci/200× field.
# Ballooning Degeneration: 0: None; 1: Few balloon cells; and 2: Many cells/prominent ballooning.
# Data are expressed as the average±SEM at each week and analyzed by Unpaired T-tests as applicable using Prism® software (GraphPad Software, Inc., Las Jolla, Calif.). A p-value of less than 0.05 indicates a significant difference between treatment groups.
# [2] = system: male C57BL/6 mice on modified high fat diet (mHFD); test: Modified high fat diet (mHFD) mouse model, serum and liver triglycerides (Example 1); details: 30 mg/kg or 100 mg/kg i.p. once daily, 8 weeks
# Method: The animal model was performed essentially as described in Cong et al., Life Sciences, 2008, 82, 983-990. Briefly, male C57BL/6 mice at 6 weeks of age were fed, ad libitum, a modified high fat diet (mHFD) provided by Research Diets, and described in Cong et al. One group of control animals (n=11) remained on standard diet. All animals remained on their respective diets for 23 weeks (29 weeks of age). At that time, animals continued to remain on their respective diets and treatment regimens began. The group of animals on standard diet and one group of animals on mHFD (n=9) received vehicle administered by intraperitoneal injection, once daily. Two additional groups of animals on mHFD (n=8) received Compound 102 administration by intraperitoneal injection, once daily at either 30 mg/kg or 100 mg/kg. Compound 102 was formulated in, and the vehicle used was, 20% hydroxypropyl beta cyclodextrin (HPBCD). Treatment regimen continued for an additional 8 weeks while the animals remained on their respective diets. At the end of 8 weeks of treatment, animals were fasted for 6 hours. […] Serum triglycerides and liver triglyceride were measured from the respective samples using Triglyceride assay kit (Wako Diagnostics, Richmond, Va.; Cat No 461-8992). Data were averaged and are expressed as the average SEM. Data were analyzed by two-way repeated measures ANOVA followed by a Dunnett's post hoc test. […]
# [3] = system: male BALB/c mice with CCl4-induced liver fibrosis; test: CCl4-induced liver fibrosis mouse model (Example 3)
# Method: In the following study, 6 to 7 week old male BALB/c mice (25-30 g) were randomized based on body weight after 7-day of CCl4 injections (3 times). Mice were fed standard rodent chow and water ad libitum. The mice were divided into 4 groups, with 12 mice per group. The mice were administered a dose volume of 10 mL/kg (MLR-1023), 2.5 mL/kg (CCl4), each in a formulation of 20% HBPCD/saline and corn oil intraperitoneally (i.p.). The dose level of MLR-1023 was 30 and 100 mg per kg, and the dose level of CCl4 was 5%. The dose frequency of MLR-1023 was once daily (QD), and the dose frequency of CCl4 was 3 times a week (Monday, Wednesday, and Friday). The study duration was 28 days, with MLR-1023 treatment started from day 8 to day 28. CCl4 was obtained from Sigma-Aldrich (St. Louis, Mo.). A commercial kit was used for analyzing liver hydroxyproline content (BioVision, Inc.; Milpitas, Calif.). ALT and AST kits were purchased from BIOO Science (Austin, Tex.). All other reagents used in the study were of analytical grade. Male BALB/c mice were obtained from Charles River Laboratories (Wilmington, Mass.). On the last day of the study all mice were sacrificed by cervical dislocation. Blood/serum samples were collected for the assays of liver enzymes (ALT and AST). Livers were rapidly dissected and part of each liver was cut and fixed in formaldehyde saline (4%) solution for histological analysis; the remainder of the liver was snap frozen in liquid nitrogen, and stored at −70° C. until use. Starting on Day 1, animals were administered i.p. with 5% CCl4 or corn oil (vehicle for CCl4 solution) three days per week (Monday, Wednesday, and Friday) for 4 weeks. CCl4 was formulated as a […] with the dose volume of 2.5 mL/kg, and was freshly formulated on a weekly basis. Animals were weighed weekly. Test compounds and vehicle administrations were performed from Day 8 to Day 28. At the end of study, blood was drawn through retro-orbital punctures for serum collection. The whole liver was removed. One lobe was placed in a tube containing 10% formalin for histopathology, the remainder of the liver lobes were collected and snap frozen for further hydroxyproline assay. Homogenized liver samples were evaluated for hydroxyproline content to assess hepatic collagen levels. Serum was separated by centrifugation at 4° C. and analyzed immediately or stored at −70° C. Serum ALT and AST levels were determined by colorimetric method and using procedures described by the kit manufacturers. Hepatic hydroxyproline content was measured by colorimetric method and expressed as μg/mg wet liver weight. Livers were removed at necropsy and fixed in 10% buffered formalin. Sections of liver were processed routinely, sectioned at approximately 4 microns, and stained with hematoxylin and eosin (H&E) or picrosirius red (PSR). Glass slides were evaluated using light microscopy by a board-certified veterinary/toxicology pathologist in a blind manner. Two sections from each animal were examined. Five animals from each group were randomly chosen for histology analysis. The severity of histologic findings was scored using the Society of Toxicologic Pathology best practices (1=minimal, 2=mild, 3=moderate, 4=marked, 5=Severe). Fibrosis value is corresponding to the fraction of centrilobular areas affected by fibrosis (1=about <10%, 2=about 11-30%, 3=about […], 4=about […], 5=about 71-100%). Liver fibrosis is characterized by increased numbers of fibroblasts and collagen fibers in liver sinusoids that partially, or completely, bridged centrilobular areas. PSR staining severity generally correlated with the mean severity of fibrosis. Overall increased collagen deposition and bridging fibrosis are identified with PSR stain. […]
# [4] = both treatments (30 and 100 mpk), H&E, FIG. 11
smiles,measurement,setting,value
"Cc1cccc(Oc2cnc(=O)[nH]c2)c1 [MLR-1023, tolimidone]",NAFLD activity score (NAS),"[1]; 30 mpk (30 mg/kg) IP, vs MD-vehicle, FIG. 6",significantly reduced
same,body weight,"[1]; 30 mpk IP, 8-week treatment, vs MD-vehicle, FIG. 3",significantly reduced
same,liver weight,"[1]; 30 mpk IP, 8-week treatment, vs MD-vehicle, FIG. 4",significantly reduced
same,TG content in liver,"[1]; 30 mpk IP, vs MD-vehicle, FIG. 2",significantly reduced
same,body weight,"[1]; 100 mpk IP, 8-week treatment, vs MD-vehicle, FIG. 3",trend in reduction (p=0.056)
same,liver weight,"[1]; 100 mpk IP, 8-week treatment, vs MD-vehicle, FIG. 4",significantly reduced
same,hepatocellular ballooning,"[1]; 100 mpk, FIG. 7",significantly reduced
same,body weight,"[1]; FIG. 3 legend, dose not stated",significantly reduced
same,liver weight,"[1]; FIG. 4 legend, dose not stated",significantly reduced
same,hepatocellular ballooning (histology),"[1]; dose not stated, FIGS. 7, 8A, 8B",reduced amount
same,steatosis (histology),"[1]; dose not stated, FIGS. 8A, 8B",reduced
same,circulating serum triglyceride levels,"[2]; 6 h fasted, FIG. 1",significantly reduced
same,accumulation of triglycerides in the liver,[2]; FIG. 2,significantly reduced
same,CCl4-induced collagen deposition,"[3]; 100 mg per kg, 21-day treatment",significantly reduced
same,fibrosis percentage,"[3]; 100 mg per kg, 21-day treatment, PSR",reduced
same,scores of hepatic inflammation,"[3]; 100 mg per kg, H&E, vs CCl4-vehicle, FIG. 12",reduced
same,"CCl4-induced increase of liver enzymes, especially AST","[3]; 21-day treatment, summary statement",mild improvement; also recorded: mild effects
same,serum AST levels,"[3]; 30 and 100 mg per kg i.p. QD day 8-28, vs CCl4-vehicle, dose-dependent manner, FIG. 9",trended towards improving
same,hepatic hydroxyproline levels,"[3]; 30 and 100 mg per kg i.p. QD day 8-28, vs CCl4-vehicle, dose-dependent manner, FIG. 10",significantly reduced
same,serum ALT levels,"[3]; 30 and 100 mg per kg i.p. QD day 8-28, vs CCl4-vehicle, FIG. 9",did not significantly affect
same,scores of hepatic necrosis/mineralization,"[3]; 30 and 100 mg per kg, H&E, vs CCl4-vehicle, FIG. 12",trended towards reducing; also recorded: reduced
same,inflammation (pathologist's general assessment),[3]; [4],still present
same,necrosis (pathologist's general assessment),[3]; [4],dose-related effect
same,fibrosis (pathologist's general assessment),"[3]; both treatments (30 and 100 mpk), PSR, FIG. 11",dose-related effect
